Reference: BindingDB's records for doi:10.1002/cbic.200400108 (Schering, 2005)
“And” between values parts separate entries of the source, which are not always exact repeats. Identical values can stand only once.

Tests used:
Assay in all cases: Inhibition Assay
[1] = target: Cyclin-dependent kinase 2 (Homo sapiens, UniProt P24941); settings: pH 8; 22 °C
From the text: (§1) Inhibition assay using CDK and selective kinases such as gsk3, EGFR, c-Kit, InsR and KDR.

Insulin receptor = Insulin receptor (Homo sapiens, UniProt P06213); settings: pH 7.5; 22 °C
Insulin receptor, sequence (P06213 28-758 limits assumed): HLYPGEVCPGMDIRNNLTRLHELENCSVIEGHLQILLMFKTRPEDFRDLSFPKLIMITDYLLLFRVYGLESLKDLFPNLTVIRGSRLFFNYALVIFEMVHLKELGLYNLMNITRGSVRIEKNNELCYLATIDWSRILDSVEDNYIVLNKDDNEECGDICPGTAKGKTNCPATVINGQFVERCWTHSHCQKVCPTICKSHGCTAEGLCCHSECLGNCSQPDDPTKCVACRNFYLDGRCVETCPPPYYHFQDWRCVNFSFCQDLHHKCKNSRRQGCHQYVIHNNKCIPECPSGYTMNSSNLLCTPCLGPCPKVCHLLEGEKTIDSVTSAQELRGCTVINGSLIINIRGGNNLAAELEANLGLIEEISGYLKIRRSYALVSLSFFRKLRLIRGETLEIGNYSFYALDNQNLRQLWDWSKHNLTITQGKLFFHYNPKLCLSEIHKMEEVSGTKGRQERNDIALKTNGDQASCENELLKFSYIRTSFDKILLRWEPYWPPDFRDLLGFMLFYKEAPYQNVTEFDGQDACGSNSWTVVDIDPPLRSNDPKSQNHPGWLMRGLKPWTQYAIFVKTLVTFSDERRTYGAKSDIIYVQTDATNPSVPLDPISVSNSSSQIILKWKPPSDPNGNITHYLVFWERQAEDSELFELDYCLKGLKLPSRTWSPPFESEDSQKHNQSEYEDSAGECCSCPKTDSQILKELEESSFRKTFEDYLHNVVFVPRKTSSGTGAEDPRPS
Insulin receptor, sequence (P06213 763-1382 limits assumed): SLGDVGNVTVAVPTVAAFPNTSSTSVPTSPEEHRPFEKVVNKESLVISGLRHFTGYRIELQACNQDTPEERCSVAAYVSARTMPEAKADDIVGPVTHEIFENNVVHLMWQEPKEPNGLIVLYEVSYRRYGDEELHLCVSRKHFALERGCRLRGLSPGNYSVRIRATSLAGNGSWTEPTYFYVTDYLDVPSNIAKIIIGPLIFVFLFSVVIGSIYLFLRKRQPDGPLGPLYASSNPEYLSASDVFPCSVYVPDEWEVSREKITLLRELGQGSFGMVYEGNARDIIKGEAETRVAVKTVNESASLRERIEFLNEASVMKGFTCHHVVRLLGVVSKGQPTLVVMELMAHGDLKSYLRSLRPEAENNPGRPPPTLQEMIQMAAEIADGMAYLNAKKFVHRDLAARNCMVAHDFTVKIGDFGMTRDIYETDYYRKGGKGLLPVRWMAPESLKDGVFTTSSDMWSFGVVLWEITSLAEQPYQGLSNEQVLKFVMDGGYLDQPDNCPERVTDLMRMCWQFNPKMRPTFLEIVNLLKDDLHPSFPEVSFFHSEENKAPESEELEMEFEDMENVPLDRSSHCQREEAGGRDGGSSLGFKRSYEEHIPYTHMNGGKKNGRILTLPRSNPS
From the text: as §1

[2] = target: Epidermal growth factor receptor (Homo sapiens, UniProt P00533); settings: pH 7; 22 °C
Epidermal growth factor receptor, sequence (P00533 whole entry): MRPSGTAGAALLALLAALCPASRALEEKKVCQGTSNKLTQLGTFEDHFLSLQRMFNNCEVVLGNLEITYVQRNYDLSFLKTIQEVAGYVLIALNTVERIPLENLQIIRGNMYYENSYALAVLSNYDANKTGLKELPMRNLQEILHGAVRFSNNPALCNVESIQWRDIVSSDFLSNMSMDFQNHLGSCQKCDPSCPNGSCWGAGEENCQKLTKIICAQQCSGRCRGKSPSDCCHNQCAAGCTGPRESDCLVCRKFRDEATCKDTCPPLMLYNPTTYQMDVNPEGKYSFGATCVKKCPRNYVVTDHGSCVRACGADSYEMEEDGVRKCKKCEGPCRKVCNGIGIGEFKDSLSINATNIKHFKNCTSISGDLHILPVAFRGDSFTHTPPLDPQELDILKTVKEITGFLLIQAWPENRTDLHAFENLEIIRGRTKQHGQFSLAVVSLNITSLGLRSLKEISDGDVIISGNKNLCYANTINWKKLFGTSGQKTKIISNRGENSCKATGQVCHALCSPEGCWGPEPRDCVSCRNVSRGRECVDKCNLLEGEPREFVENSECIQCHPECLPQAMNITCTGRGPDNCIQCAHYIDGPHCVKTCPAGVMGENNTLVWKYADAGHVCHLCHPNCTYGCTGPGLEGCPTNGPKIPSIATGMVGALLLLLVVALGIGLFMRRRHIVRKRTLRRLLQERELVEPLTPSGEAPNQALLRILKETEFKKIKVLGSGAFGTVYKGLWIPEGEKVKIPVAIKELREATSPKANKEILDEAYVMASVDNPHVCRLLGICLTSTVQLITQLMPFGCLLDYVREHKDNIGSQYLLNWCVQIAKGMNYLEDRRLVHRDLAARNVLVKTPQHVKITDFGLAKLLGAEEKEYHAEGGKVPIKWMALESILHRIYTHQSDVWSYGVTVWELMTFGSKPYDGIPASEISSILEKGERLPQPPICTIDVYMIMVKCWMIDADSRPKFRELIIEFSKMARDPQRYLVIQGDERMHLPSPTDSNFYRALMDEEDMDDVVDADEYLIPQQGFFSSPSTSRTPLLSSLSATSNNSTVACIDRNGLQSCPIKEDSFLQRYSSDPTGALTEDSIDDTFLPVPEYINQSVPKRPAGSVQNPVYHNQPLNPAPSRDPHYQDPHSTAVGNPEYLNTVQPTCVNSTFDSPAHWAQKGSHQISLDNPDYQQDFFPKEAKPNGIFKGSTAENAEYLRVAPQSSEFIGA
From the text: as §1

[3] = target: Vascular endothelial growth factor receptor 2 (Homo sapiens, UniProt P35968); settings: pH 7; 22 °C
Vascular endothelial growth factor receptor 2, sequence (P35968 whole entry): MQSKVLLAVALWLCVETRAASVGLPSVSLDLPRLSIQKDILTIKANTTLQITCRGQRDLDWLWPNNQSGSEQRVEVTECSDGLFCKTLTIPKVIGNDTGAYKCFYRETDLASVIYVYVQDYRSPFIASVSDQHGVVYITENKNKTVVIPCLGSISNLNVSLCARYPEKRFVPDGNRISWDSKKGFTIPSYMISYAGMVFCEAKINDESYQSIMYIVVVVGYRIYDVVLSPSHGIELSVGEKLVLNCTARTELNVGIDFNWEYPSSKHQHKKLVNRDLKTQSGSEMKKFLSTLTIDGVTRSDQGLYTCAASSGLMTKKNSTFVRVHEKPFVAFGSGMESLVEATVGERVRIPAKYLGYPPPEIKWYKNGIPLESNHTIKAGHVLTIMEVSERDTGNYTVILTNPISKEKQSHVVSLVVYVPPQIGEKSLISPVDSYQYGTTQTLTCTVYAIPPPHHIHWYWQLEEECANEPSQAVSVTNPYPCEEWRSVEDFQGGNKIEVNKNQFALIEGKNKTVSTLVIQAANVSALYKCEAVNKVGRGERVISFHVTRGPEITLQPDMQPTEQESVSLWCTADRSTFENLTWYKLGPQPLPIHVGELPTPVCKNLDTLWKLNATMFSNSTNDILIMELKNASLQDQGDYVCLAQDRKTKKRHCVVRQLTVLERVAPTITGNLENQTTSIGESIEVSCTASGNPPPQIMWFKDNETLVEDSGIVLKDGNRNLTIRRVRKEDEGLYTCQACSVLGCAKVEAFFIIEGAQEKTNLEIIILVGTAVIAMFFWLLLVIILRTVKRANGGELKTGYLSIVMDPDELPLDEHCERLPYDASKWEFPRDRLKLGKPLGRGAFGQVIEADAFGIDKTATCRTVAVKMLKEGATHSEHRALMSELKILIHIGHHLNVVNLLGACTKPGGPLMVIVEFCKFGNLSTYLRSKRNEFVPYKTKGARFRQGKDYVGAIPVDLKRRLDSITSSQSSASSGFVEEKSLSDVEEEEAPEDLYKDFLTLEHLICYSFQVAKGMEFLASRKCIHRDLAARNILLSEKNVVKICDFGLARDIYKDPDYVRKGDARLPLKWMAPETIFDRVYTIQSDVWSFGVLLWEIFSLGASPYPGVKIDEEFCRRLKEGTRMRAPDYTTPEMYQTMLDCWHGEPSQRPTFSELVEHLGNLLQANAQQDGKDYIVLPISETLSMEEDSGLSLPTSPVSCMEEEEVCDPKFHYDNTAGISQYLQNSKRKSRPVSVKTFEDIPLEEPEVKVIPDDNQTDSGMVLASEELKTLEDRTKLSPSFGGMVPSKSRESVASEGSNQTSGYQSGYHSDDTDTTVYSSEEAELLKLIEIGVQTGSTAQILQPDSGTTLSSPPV
From the text: as §1

CN(C)S(=O)(=O)c1ccc2c(c1)C(C1=Nc3ccccc3C1(O)C(O)CO)C(=O)N2 (stereo unspecified) [Indirubin derivative, 31b]
IC50 [1]: 3000 nM and > 10000 nM

CN(C[C@H](O)[C@@H](O)[C@H](O)[C@H](O)CO)S(=O)(=O)c1ccc2c(c1)C(=C1Nc3ccccc3C1=O)C(=O)N2 [Indirubin derivative, 35]
IC50 [1]: 450 nM

O=C1Nc2ccc(S(=O)(=O)O)cc2C1=C1Nc2ccccc2C1=O [Indirubin derivative, 20]
IC50 (Insulin receptor): > 10000 nM
IC50 [2]: > 10000 nM
IC50 [3]: > 10000 nM

C=CCC1(O)C(C2C(=O)Nc3ccc(S(=O)(=O)N(C)CCN(C)C)cc32)=Nc2ccccc21 (stereo unspecified) [Indirubin derivative, 30b]
IC50 (Insulin receptor): > 10000 nM
IC50 [2]: > 10000 nM
IC50 [3]: > 10000 nM

CC1(O)C(C2C(=O)Nc3ccc(S(=O)(=O)N4CCC(O)CC4)cc32)=Nc2ccccc21 (stereo unspecified) [Indirubin derivative, 37]
IC50 [1]: 1600 nM

CN(C)C1CCN(S(=O)(=O)c2ccc3c(c2)C(=C2Nc4ccccc4C2=O)C(=O)N3)CC1 [Indirubin derivative, 36 (X=O)]
IC50 [1]: 20 nM

CN(C)S(=O)(=O)c1ccc2c(c1)/C(=C1/Nc3ccccc3/C1=N\OCCO[C@@H]1O[C@H](CO)[C@@H](O)[C@H](O)[C@H]1O)C(=O)N2 [Indirubin derivative, 36 (X=NO)]
IC50 [1]: 80 nM

O=C1Nc2ccc(Br)cc2C1=C1Nc2ccccc2C1=O
IC50 (Insulin receptor): > 10000 nM
IC50 [2]: > 10000 nM
IC50 [3]: > 10000 nM

CN(C)CCN(C)S(=O)(=O)c1ccc2c(c1)C(c1[nH]c3ccccc3c1N=O)C(=O)N2 (stereo unspecified) [Indirubin derivative, 23]
IC50 [1]: 40 nM

CN(C)S(=O)(=O)c1ccc2c(c1)C(=C1Nc3ccccc3C1=O)C(=O)N2 [Indirubin derivative, 8]
IC50 [1]: 40 nM

CN(C)CCN(C)S(=O)(=O)c1ccc2c(c1)C(C1=Nc3ccccc3C1(C)O)C(=O)N2 (stereo unspecified) [Indirubin derivative, 28b]
IC50 (Insulin receptor): > 10000 nM
IC50 [2]: > 10000 nM
IC50 [3]: > 10000 nM

CN(C)CCN(C)S(=O)(=O)c1ccc2c(c1)/C(=C1/Nc3ccccc3/C1=N\OCCO[C@@H]1O[C@H](CO)[C@@H](O)[C@H](O)[C@H]1O)C(=O)N2 [Indirubin derivative, 25]
IC50 [1]: 90 nM

O=C(O)CCNS(=O)(=O)c1ccc2c(c1)C(=C1Nc3ccccc3C1=O)C(=O)N2 [Indirubin derivative, 34]
IC50 [1]: 1500 nM

O=C1Nc2ccc(S(=O)(=O)NCCO)cc2C1=C1Nc2ccccc2C1=O [Indirubin derivative, 33]
IC50 [1]: 80 nM

O=C1Nc2ccccc2/C1=C1/Nc2ccccc2C1=O [2-[(3Z)-2-oxo-2,3-dihydro-1H-indol-3-ylidene]-2,3-dihydro-1H-indol-3-one]
IC50 [1]: 2000 nM

CC1(O)C(C2C(=O)Nc3ccc(Br)cc32)=Nc2ccccc21 (stereo unspecified) [Indirubin derivative, 26]
IC50 [1]: 3000 nM

CN(C)S(=O)(=O)c1ccc2c(c1)C(C1=Nc3ccccc3C1(C)O)C(=O)N2 (stereo unspecified) [Indirubin derivative, 27b]
IC50 [1]: 70 nM and 600 nM

CN(C)CCN(C)S(=O)(=O)c1ccc2c(c1)C(=C1Nc3ccccc3C1=O)C(=O)N2 [Indirubin derivative, 22]
IC50 [1]: 10 nM
